# Assay results as given in ChEMBL document CHEMBL3885861, “Open TG-GATES”.
# Species on record: Rattus norvegicus
# Test: Open TG-GATES - Regimen: Single
# Assay type: toxicity, organism-based, Sprague-Dawley
# Design: regimen Single, gender Male, age 6 weeks
# Details: in vivo, po, route gavage; for Bas / Eos / Fbg / Hb / Lym / MCH / MCHC / MCV / Mono / Neu / RBC / Ret / WBC / APTT: tissue Blood; for KIDNEY_L / KIDNEY_R / KIDNEY_TOTAL: tissue Kidney; for LIVER: tissue Liver; for ALP / ALT / AST / CRE / Ca / Cl / DBIL / GLC / IP / K / LDH / Na / PL / RALB / TBIL / TC / TG / TP / gamma-GTP: tissue Plasma
# [1] = 75 mg/kg, 3 h, dose level Middle
smiles,measurement,setting,value
O=C1CN(/N=C/c2ccc(-c3ccc([N+](=O)[O-])cc3)o2)C(O)=N1 [DANTROLENE],Bas,"25 mg/kg, 3 h, dose level Low",0%
same,Eos,"25 mg/kg, 3 h, dose level Low",1%
same,Fbg,"25 mg/kg, 3 h, dose level Low",205.2 mg/dL
same,Hb,"25 mg/kg, 3 h, dose level Low",13.6 g/dL
same,Lym,"25 mg/kg, 3 h, dose level Low",74.4%
same,MCH,"25 mg/kg, 3 h, dose level Low",22.5 pg
same,MCHC,"25 mg/kg, 3 h, dose level Low",34.1%
same,MCV,"25 mg/kg, 3 h, dose level Low",65.9 fL
same,Mono,"25 mg/kg, 3 h, dose level Low",8.4%
same,Neu,"25 mg/kg, 3 h, dose level Low",16.2%
same,RBC,"25 mg/kg, 3 h, dose level Low",604.8 x10_4/ul
same,Ret,"25 mg/kg, 3 h, dose level Low",10.4%
same,WBC,"25 mg/kg, 3 h, dose level Low",99.1 x10_2/uL
same,KIDNEY_L,"25 mg/kg, 3 h, dose level Low",1 g
same,KIDNEY_R,"25 mg/kg, 3 h, dose level Low",1 g
same,KIDNEY_TOTAL,"25 mg/kg, 3 h, dose level Low",1.9 g
same,LIVER,"25 mg/kg, 3 h, dose level Low",9.5 g
same,ALP,"25 mg/kg, 3 h, dose level Low",1009.8 IU/L
same,ALT,"25 mg/kg, 3 h, dose level Low",38.4 IU/L
same,AST,"25 mg/kg, 3 h, dose level Low",69.2 IU/L
same,CRE,"25 mg/kg, 3 h, dose level Low",0.6 mg/dL
same,Ca,"25 mg/kg, 3 h, dose level Low",10.5 mg/dL
same,Cl,"25 mg/kg, 3 h, dose level Low",101.8 meq/L
same,DBIL,"25 mg/kg, 3 h, dose level Low",0.03 mg/dL
same,GLC,"25 mg/kg, 3 h, dose level Low",213 mg/dL
same,IP,"25 mg/kg, 3 h, dose level Low",10.8 mg/dL
same,K,"25 mg/kg, 3 h, dose level Low",4.8 meq/L
same,LDH,"25 mg/kg, 3 h, dose level Low",97.8 IU/L
same,Na,"25 mg/kg, 3 h, dose level Low",139.2 meq/L
same,PL,"25 mg/kg, 3 h, dose level Low",141.6 mg/dL
same,RALB,"25 mg/kg, 3 h, dose level Low",3.8 g/dL
same,TBIL,"25 mg/kg, 3 h, dose level Low",0.4 mg/dL
same,TC,"25 mg/kg, 3 h, dose level Low",83.4 mg/dL
same,TG,"25 mg/kg, 3 h, dose level Low",39.4 mg/dL
same,TP,"25 mg/kg, 3 h, dose level Low",5.6 g/dL
same,gamma-GTP,"25 mg/kg, 3 h, dose level Low",2.6 IU/L
same,TERMINAL_BW,"25 mg/kg, 6 h, dose level Low",191.8 g
same,APTT,"25 mg/kg, 6 h, dose level Low",16.9 s
same,Bas,"25 mg/kg, 6 h, dose level Low",0%
same,Eos,"25 mg/kg, 6 h, dose level Low",1.2%
same,Fbg,"25 mg/kg, 6 h, dose level Low",210.4 mg/dL
same,Hb,"25 mg/kg, 6 h, dose level Low",13.8 g/dL
same,Lym,"25 mg/kg, 6 h, dose level Low",77%
same,MCH,"25 mg/kg, 6 h, dose level Low",21.9 pg
same,MCHC,"25 mg/kg, 6 h, dose level Low",34.3%
same,MCV,"25 mg/kg, 6 h, dose level Low",64.1 fL
same,Mono,"25 mg/kg, 6 h, dose level Low",8%
same,Neu,"25 mg/kg, 6 h, dose level Low",14%
same,RBC,"25 mg/kg, 6 h, dose level Low",632.4 x10_4/ul
same,Ret,"25 mg/kg, 6 h, dose level Low",12.6%
same,WBC,"25 mg/kg, 6 h, dose level Low",89.5 x10_2/uL
same,KIDNEY_L,"25 mg/kg, 6 h, dose level Low",0.9 g
same,KIDNEY_R,"25 mg/kg, 6 h, dose level Low",0.9 g
same,KIDNEY_TOTAL,"25 mg/kg, 6 h, dose level Low",1.8 g
same,LIVER,"25 mg/kg, 6 h, dose level Low",8.7 g
same,ALP,"25 mg/kg, 6 h, dose level Low",698.6 IU/L
same,ALT,"25 mg/kg, 6 h, dose level Low",30.4 IU/L
same,AST,"25 mg/kg, 6 h, dose level Low",60.4 IU/L
same,CRE,"25 mg/kg, 6 h, dose level Low",0.5 mg/dL
same,Ca,"25 mg/kg, 6 h, dose level Low",10.3 mg/dL
same,Cl,"25 mg/kg, 6 h, dose level Low",103 meq/L
same,DBIL,"25 mg/kg, 6 h, dose level Low",0.07 mg/dL
same,GLC,"25 mg/kg, 6 h, dose level Low",188.2 mg/dL
same,IP,"25 mg/kg, 6 h, dose level Low",9.7 mg/dL
same,K,"25 mg/kg, 6 h, dose level Low",4.7 meq/L
same,LDH,"25 mg/kg, 6 h, dose level Low",100.8 IU/L
same,Na,"25 mg/kg, 6 h, dose level Low",139.2 meq/L
same,PL,"25 mg/kg, 6 h, dose level Low",141.6 mg/dL
same,RALB,"25 mg/kg, 6 h, dose level Low",3.7 g/dL
same,TBIL,"25 mg/kg, 6 h, dose level Low",0.4 mg/dL
same,TC,"25 mg/kg, 6 h, dose level Low",78.8 mg/dL
same,TG,"25 mg/kg, 6 h, dose level Low",44 mg/dL
same,TP,"25 mg/kg, 6 h, dose level Low",5.3 g/dL
same,gamma-GTP,"25 mg/kg, 6 h, dose level Low",2 IU/L
same,TERMINAL_BW,"25 mg/kg, 9 h, dose level Low",189.9 g
same,APTT,"25 mg/kg, 9 h, dose level Low",16.4 s
same,Bas,"25 mg/kg, 9 h, dose level Low",0%
same,Eos,"25 mg/kg, 9 h, dose level Low",0.6%
same,Fbg,"25 mg/kg, 9 h, dose level Low",209.8 mg/dL
same,Hb,"25 mg/kg, 9 h, dose level Low",13.9 g/dL
same,Lym,"25 mg/kg, 9 h, dose level Low",80.6%
same,MCH,"25 mg/kg, 9 h, dose level Low",21.6 pg
same,MCHC,"25 mg/kg, 9 h, dose level Low",33.1%
same,MCV,"25 mg/kg, 9 h, dose level Low",65.4 fL
same,Mono,"25 mg/kg, 9 h, dose level Low",5%
same,Neu,"25 mg/kg, 9 h, dose level Low",14%
same,RBC,"25 mg/kg, 9 h, dose level Low",644 x10_4/ul
same,Ret,"25 mg/kg, 9 h, dose level Low",10.9%
same,WBC,"25 mg/kg, 9 h, dose level Low",83 x10_2/uL
same,KIDNEY_L,"25 mg/kg, 9 h, dose level Low",0.9 g
same,KIDNEY_R,"25 mg/kg, 9 h, dose level Low",0.9 g
same,KIDNEY_TOTAL,"25 mg/kg, 9 h, dose level Low",1.8 g
same,LIVER,"25 mg/kg, 9 h, dose level Low",8.2 g
same,ALP,"25 mg/kg, 9 h, dose level Low",723.6 IU/L
same,ALT,"25 mg/kg, 9 h, dose level Low",22.2 IU/L
same,AST,"25 mg/kg, 9 h, dose level Low",49.4 IU/L
same,CRE,"25 mg/kg, 9 h, dose level Low",0.6 mg/dL
same,Ca,"25 mg/kg, 9 h, dose level Low",10.4 mg/dL
same,Cl,"25 mg/kg, 9 h, dose level Low",104.4 meq/L
same,DBIL,"25 mg/kg, 9 h, dose level Low",0.062 mg/dL
same,GLC,"25 mg/kg, 9 h, dose level Low",199.4 mg/dL
same,IP,"25 mg/kg, 9 h, dose level Low",10.1 mg/dL
same,K,"25 mg/kg, 9 h, dose level Low",5.1 meq/L
same,LDH,"25 mg/kg, 9 h, dose level Low",75.2 IU/L
same,Na,"25 mg/kg, 9 h, dose level Low",139 meq/L
same,PL,"25 mg/kg, 9 h, dose level Low",137.2 mg/dL
same,RALB,"25 mg/kg, 9 h, dose level Low",3.7 g/dL
same,TBIL,"25 mg/kg, 9 h, dose level Low",0.4 mg/dL
same,TC,"25 mg/kg, 9 h, dose level Low",69.8 mg/dL
same,TG,"25 mg/kg, 9 h, dose level Low",42.8 mg/dL
same,TP,"25 mg/kg, 9 h, dose level Low",5.5 g/dL
same,gamma-GTP,"25 mg/kg, 9 h, dose level Low",2 IU/L
same,TERMINAL_BW,"25 mg/kg, 24 h, dose level Low",208.5 g
same,APTT,"25 mg/kg, 24 h, dose level Low",16.6 s
same,Bas,"25 mg/kg, 24 h, dose level Low",0%
same,Eos,"25 mg/kg, 24 h, dose level Low",1%
same,Fbg,"25 mg/kg, 24 h, dose level Low",200.4 mg/dL
same,Hb,"25 mg/kg, 24 h, dose level Low",13.1 g/dL
same,Lym,"25 mg/kg, 24 h, dose level Low",81.2%
same,MCH,"25 mg/kg, 24 h, dose level Low",21.9 pg
same,MCHC,"25 mg/kg, 24 h, dose level Low",33.5%
same,MCV,"25 mg/kg, 24 h, dose level Low",65.4 fL
same,Mono,"25 mg/kg, 24 h, dose level Low",6.8%
same,RBC,"25 mg/kg, 24 h, dose level Low",600.4 x10_4/ul
same,Ret,"25 mg/kg, 24 h, dose level Low",11.4%
same,WBC,"25 mg/kg, 24 h, dose level Low",97.3 x10_2/uL
same,KIDNEY_L,"25 mg/kg, 24 h, dose level Low",1 g
same,KIDNEY_R,"25 mg/kg, 24 h, dose level Low",1 g
same,KIDNEY_TOTAL,"25 mg/kg, 24 h, dose level Low",2 g
same,LIVER,"25 mg/kg, 24 h, dose level Low",10.4 g
same,ALP,"25 mg/kg, 24 h, dose level Low",1049.2 IU/L
same,ALT,"25 mg/kg, 24 h, dose level Low",35.8 IU/L
same,AST,"25 mg/kg, 24 h, dose level Low",71.2 IU/L
same,CRE,"25 mg/kg, 24 h, dose level Low",0.5 mg/dL
same,Ca,"25 mg/kg, 24 h, dose level Low",11.1 mg/dL
same,Cl,"25 mg/kg, 24 h, dose level Low",105.4 meq/L
same,DBIL,"25 mg/kg, 24 h, dose level Low",0.012 mg/dL
same,GLC,"25 mg/kg, 24 h, dose level Low",198.2 mg/dL
same,IP,"25 mg/kg, 24 h, dose level Low",6.5 mg/dL
same,K,"25 mg/kg, 24 h, dose level Low",4.7 meq/L
same,Na,"25 mg/kg, 24 h, dose level Low",142 meq/L
same,PL,"25 mg/kg, 24 h, dose level Low",142.4 mg/dL
same,RALB,"25 mg/kg, 24 h, dose level Low",3.9 g/dL
same,TBIL,"25 mg/kg, 24 h, dose level Low",0.3 mg/dL
same,TC,"25 mg/kg, 24 h, dose level Low",77.8 mg/dL
same,TG,"25 mg/kg, 24 h, dose level Low",73.2 mg/dL
same,TP,"25 mg/kg, 24 h, dose level Low",5.6 g/dL
same,gamma-GTP,"25 mg/kg, 24 h, dose level Low",1.6 IU/L
same,TERMINAL_BW,[1],194 g
same,APTT,[1],16.9 s
